Assay results from patent US20170137458A1, “OXYSTEROLS FOR USE IN THE TREATMENT AND PREVENTION OF DISEASES CAUSED BY VIRUSES” (priority 2014, published 2017).
Read-outs that look alike come from different tables or passages of the source.

Tests used:
human rotavirus Wa [1] = assay: Infectivity assay for rotavirus repeated on Caco2 cells, strain Wa; format: cell-based; conditions: Caco-2
Excerpt: The results of the antiviral assays performed treating with 25OHC and 27OHC were confirmed repeating the infectivity assays on Caco2 cells.

[2] = tested on: human rotavirus (strain Wa); assay: Rotavirus yield reduction assay; format: cell-based
Method: The cells were treated at 37° C. with 25-, 27-, 7α-, 7β-hydroxycholesterol or 7-ketocholesterol at 5.6 μM for 20 hours, then washed with medium and infected with the human rotavirus at an MOI of 0.02 (strain Wa) activated with trypsin. After one hour, the cells were washed and fresh medium was added supplemented with 0.5 μg/ml of porcine trypsin. […] The assay was performed in triplicate and the results were confirmed on Caco2 cells. In an alternative protocol, the MA104 cells were treated with oxysterols—at the concentration indicated above—after the viral inoculum. The one-way variance analysis (ANOVA), followed by the Bonferroni test, was used to evaluate the statistical significance of the virus titre differences between the treated and non-treated samples. The significance was fixed at 95%.
The results of the pre-treatment assays are illustrated in FIGS. 5 (MA104 cells) and 6 (Caco2 cells).

PsV of HPV-16 = assay: microbe, parasite or virus in culture; format: cell-based, human papillomavirus
TLR3 = assay: Quantitative real time RT-PCR of TLR-3 in Caco2 cells; format: cell-based, human; conditions: CaCo2 intestinal cells, 1.9 μM, 30 minutes to 6 hours
Method: The Caco2 cells were cultivated in DMEM medium containing 10% serum and seeded in 25 cm^2 flasks (8 million confluence cells). The next day the cells were treated, in DMEM medium containing 2% serum, with 1.9 μM 25OHC or 27OHC (dissolved in ethanol) for 30 minutes, 1, 2, 3, 4, 5 or 6 hours. Extraction of the total RNA was performed using the TRIzol Reagent (Applied Biosystems, Monza, Italy) and the quantity and purity (A260/A280 ratio) of the extracted RNA were spectrophotometrically measured. Subsequently, 2 μg of RNA were retrotranscribed using the High-Capacity cDNA Reverse Transcription Kit (Applied Biosystems). Quantitative RT-PCR was performed with 30 ng of cDNA using the “TaqMan Gene Expression Assay kits” for TLR-3 and β-actin, TaqMan Fast Universal PCR Master Mix, and 7500 Fast Real-Time PCR System (Applied Biosystems). For each gene considered, the threshold cycle (Ct) was determined and the results were normalized using β-actin as a reference gene. The relative quantification was performed using a mathematical method previously published (29). In FIGS. 1a-1b, the results are reported as increment of the genic expression (Fold change, Fc) of the treated samples with respect to the controls.

rotavirus = assay: Rotavirus cell entry kinetics; format: cell-based; conditions: MA104 cells; for entry of the rotavirus into the cells (infective events): 1.9 μM for 20 hours, MOI 0.02
Method: To measure the entry speed of the rotavirus into the cells, confluent monolayers of MA104 cells (cultivated in plates with 96 wells) were treated with 25OHC, 27OHC or 7κC at 1.9 μM at 37° C.; after 20 hours, the cells were washed extensively with cold medium and left to cool on ice. […] The non-bound viruses were then eliminated by washing, medium was added at 37° C., and the plates were incubated at 37° C. in a humidified atmosphere. At fixed times (i.e. 0, 15, 30, 45, 60, 75 and 90 minutes after the virus-cell adhesion), the medium was extracted from the wells and the viral particles still present on the surface of the cells were eliminated by means of two rapid washing operations with EGTA 3 mM in PBS, followed by incubation in warm medium. After reaching the last time point (90 minutes from the virus-cell adhesion), the plates with 96 wells were placed in an incubator (37° C., 5% CO2), and the infection was left to proceed for a further 16 hours. The cells were then fixed and coloured as described above. The quantity of viral particles that entered the cells at each time point was compared with the quantity of virus that entered when no washing with EGTA was performed (100% entry). The ANOVA, followed by the Bonferroni test, was used to evaluate the statistical significance of the differences between the treated and non-treated samples. The significance was fixed at the level of 95%.
As a control experiment, the same treatment and infection protocol was performed on MA104 cells, cultivated in a plate with 6 wells. In this experiment, after reaching the last time point of the entry measurement (90 minutes), the cells were lysed, the proteins extracted were denatured by boiling for 5 minutes, then separated by electrophoresis on sodium dodecylsulfate gel with 12% polyacrylamide (SDS-12%PAGE) and transferred to a polyvinylidene difluoride (PVDF) membrane. The protein of the intermediate capsid VP6 was detected using the murine monoclonal antibody 2B4 (mab0036-P, CovalAb) at a dilution 1:750, followed by secondary antibody IgG-HRP (Santa Cruz Biotechnology Inc.). The actin was detected using the anti-actin murine monoclonal antibody MAB1501R (Millipore), followed by antibody IgG-HRP (Santa Cruz Biotechnology Inc.). The density of the bands was compared using the ImageJ software, and the intensity of the actin bands was used to normalize the values. The ANOVA, followed by the Bonferroni test, was used to evaluate the statistical significance of the differences between the treated and the non-treated samples. The significance was fixed at the level of 95%. The results are reported in FIG. 11 and are expressed as a percentage, comparing treated cells with cells incubated with culture medium.

HPV PsV (protein L1) = assay: Assay for adhesion of the papillomavirus to the cell surface: Western blot analysis; format: cell-based, human papillomavirus; conditions: Hela cells treated 16 hours, PsV 4 hours at 4° C.
Excerpt: L1 was detected using the murine monoclonal antibody (Ab30908, Abcam, Cambridge, UK) at a dilution of 1:2000, followed by secondary antibody IgG-HRP (Santa Cruz Biotechnology Inc.). The actin was detected using an anti-actin murine monoclonal antibody (MAB1501R, Millipore), followed by secondary antibody IgG-HRP (Santa Cruz Biotechnology Inc.).

TLR4 = conditions: cited from earlier work
LXR = conditions: cited from earlier work
human rhinovirus 1A [3] = assay: Rhinovirus yield reduction assay; conditions: HeLa cells, 5.6 μM after infection, collected 5 days after the infection
Method: Each well was inoculated with 200 μl of a stock of human rhinovirus 1A containing approximately 30 PFU per well and incubated for 1 hour. […] The infected cells and the supernatants were collected 5 days after the infection (when a complete CPE was visible), and titred by means of the standard plaque method, as described above.

human rotavirus Wa [4] = assay: Infectivity assay for rotavirus, MA104 cells, strain Wa
Method: (§2) The strains of human rotavirus Wa (ATCC® VR-2018), WI61 (ATCC® VR-2551), HRV 408 (ATCC® VR-2273), HRV 248 (ATCC® VR-2274) and DS-1 (ATCC® VR-2550) were acquired from the American Tissue Culture Collection (ATCC); the viruses were activated with 5 μg/ml porcine pancreatic trypsin of type IX (Sigma, St. Louis, Mo.) for 30 minutes at 37° C. and propagated in MA104 cells using MEM containing 0.5 μg of trypsin per ml as described previously (27).
(§3) The antiviral effectiveness of the oxysterols of the invention was determined by means of infectivity inhibition assay. The assays were performed with confluent monolayers of MA104 cells seeded in plates with 96 wells, as described previously (28). […] The control samples were prepared by treating the cells with culture medium with the addition of equal volumes of ethanol. The cells were then washed with medium, and the rotavirus infection was performed at a multiplicity of infection (MOI) of 0.02. After the infection, the cells were washed with medium and incubated at 37° C. in an incubator humidified at 5% (vol/vol) CO2-95% (vol/vol) of air. After 16 hours, the infected cells were fixed with a cold acetone-methanol mixture (50:50), and the virus titres were determined by means of indirect immunocytochemistry. The inhibition of the virus infectivity was expressed as a percentage comparing the mean number of infective events in the treated and non-treated samples±the standard deviations. Where possible, the values of the oxysterol concentrations able to determine 50% or 90% of the antiviral effect (EC50 and EC90 respectively) were calculated by means of regression analysis using the dose-response curves generated by the experimental data, with the use of PRISM 5.00 (GraphPad Software, San Diego, Calif., USA).

human rotavirus DS-1 = assay: Infectivity assay for rotavirus, MA104 cells, strain DS-1
Method: as §2, §3

human rotavirus WI61 = assay: Infectivity assay for rotavirus, MA104 cells, strain WI61
Method: as §2, §3

human rotavirus HRV 248 = assay: Infectivity assay for rotavirus, MA104 cells, strain HRV 248
Method: as §2, §3

human rotavirus HRV 408 = assay: Infectivity assay for rotavirus, MA104 cells, strain HRV 408
Method: as §2, §3

human rhinovirus 1A [5] = assay: Infectivity assay with rhinovirus (plaque count, HeLa cells)
Method: The human rhinovirus 1A (ATCC® VR-1559) was acquired from ATCC. The virus was propagated in HeLa cells, at 33° C. with 5% of CO2. When the cytopathic effect (CPE) had fully developed, cells and supernatants were collected, frozen and thawed three times, clarified and divided into aliquots. The viruses were kept at −70° C. The rhinovirus titres were determined by means of the standard plaque assay. In short, the HeLa cells were seeded 2 days prior to the infection in plates with 96 wells, reaching 60%-70% confluence at the time of the infection. The viral suspension was serially diluted in DMEM supplemented with 2% fetal bovine serum and inoculated; the infected wells were incubated at 33° C. for 1 hour, allowing the viruses to adhere and enter the cells. The cells were subsequently washed with medium and covered with a 1:1 mixture of 1.6% SeaPlaque agarose (BioWhittaker Molecular Applications) and DMEM 2X [26.76 g DMEM (Gibco BRL), 20 ml of L-glutamine (Gibco BRL), 4.4 g of sodium bicarbonate (Sigma, St. Louis, Mo.), FBS 40 ml (Sigma, St. Louis, Mo.) and 1000 ml of water]. The plates were incubated at 33° C. for 3 days. At the end of the incubation, the plates were fixed with 7.5% formaldehyde (Fluka) and coloured with crystal violet (Sigma, St. Louis, Mo.). The number of plaques formed was then counted; the virus titres were expressed in terms of plaque-forming units per ml (PFU/ml).
The HeLa cells, kept in DMEM supplemented with 10% FBS and 1% Zell Shield, were seeded (at 8×10^4 cells/well) in plates with 24 wells. The medium was removed and the cells were infected with 200 microlitres/well containing approximately 30 PFU of a stock of human rhinovirus 1A. The infected cells were incubated at 33° C. for 1 h, allowing the virus to adhere and enter the cells. […] The plates were incubated at 33° C. for 5 days. After the incubation, the plates were fixed with formaldehyde at 7.5% (Fluka), coloured with crystal violet (Sigma, St. Louis, Mo.) and the number of plaques formed was counted. The oxysterol concentration values able to determine 50% or 90% of the antiviral effect (EC50 and EC90 respectively) were calculated by means of regression analysis using the dose-response curves generated by the experimental data, using PRISM 5.00 (GraphPad Software, San Diego, Calif., USA).

human rotavirus [6] = assay: Target identification by siRNA sensitization (TISS), human rotavirus, Caco2 cells; conditions: oxysterol at its EC50
Method: This mechanism of action vis-à-vis the rotavirus was therefore investigated, performing a target identification assay by means of sensitization with short interfering RNA (siRNA). The Caco2 cells (for the experiments with human rotavirus) or the HeLa cells (for the experiments with human papillomavirus) were seeded in a plate with 24 wells; during seeding, the cells were transfected with siRNA specific for OSBP and VAPA (at a concentration of 20 nM). […] After one day, the medium was removed and the cells inoculated with the respective viruses in the same time, temperature and MOI conditions described in the protocols of the infectivity or neutralization assays. The number of infected cells was evaluated as described in the preceding paragraphs.

human papillomavirus = assay: Antiviral assay with U18666A, papillomavirus, HeLa cells; format: cell-based; conditions: HeLa cells treated 20 hours
Method: (§1) According to the hypothesis formulated previously, the oxysterols determine an accumulation of the intracellular cholesterol at endosomal level, inhibiting entry of the rotavirus. […] U18666A is an amphipathic steroid, widely used to block the intracellular transport of cholesterol, with consequent accumulation of the same at the level of the endosome membranes (31). In short, antiviral assays were performed treating the MA104 cells (for the rotavirus) or HeLa cells (for the papillomavirus) for 20 hours with scalar concentrations of U18666A (0.07 to 50 μM) and then infecting for one hour with the respective viruses. The effect of the treatment on the infectivity of the two viral models was evaluated as described previously. […] The experiment described therefore constitutes solid proof of the principle of the mechanism of action proposed.

human rotavirus [7] = assay: Antiviral assay with U18666A, rotavirus, MA104 cells; format: cell-based; conditions: MA104 cells treated 20 hours, 0.07 to 50 μM
Method: as §1

[8] = Caco2 cells, pre-treatment 5.6 μM for 20 hours, collected 48 hours after infection
[9] = MA104 cells, post-infection treatment 5.6 μM
[10] = MA104 cells, pre-treatment 5.6 μM for 20 hours, collected 48 hours after infection
[11] = pre-treatment assay, 20 hours prior to the infection

For `C[C@@H](CO)CCC[C@@H](C)[C@H]1CC[C@H]2[C@@H]3CC=C4C[C@@H](O)CC[C@]4(C)[C@H]3CC[C@]12C` [27OHC, 27-hydroxycholesterol], the EC50 (human rotavirus Wa [1]) was 0.44 µM, the EC90 (human rotavirus Wa [1]) was 2.5 µM and the “production of virus progenies” value [2, 8] was “significantly limit (p<0.05) the production of virus progenies”. The “production of virus progenies” value [2, 9] was “confirm the in vitro effectiveness”, the “production of virus progenies” value [2, 10] was “significantly limit (p<0.05) the production of virus progenies” and the EC50 (PsV of HPV-16; C33A cells, treated 16 hours before PsV, read-out: EC50) was 6.87 µM. The EC50 (PsV of HPV-16; Human papillomavirus, HeLa) was 9.33 µM, the EC50 (PsV of HPV-16; Human papillomavirus, SiHa) was 28.9 µM and the TLR3 expression (TLR3) was “marked hyperexpression of TLR3”. For the same compound, the “entry of the rotavirus into the cells (infective events)” value (rotavirus) was “able to limit the entry of the viral particles into the cells, shows a lesser effectiveness”, the “viral antigen VP6 within the cells (Western blot)” value (rotavirus; 90 minutes after virus-cell adhesion) was “significantly (p<0.05) lower quantity than the non-treated control” and the “adhesion of the PsV to the cell surface (L1 Western blot)” value (HPV PsV (protein L1)) was “not able to inhibit adhesion of the PsV to the cell surface”. The “induction of TLR4” value (TLR4; SH-SY5Y neuroblastoma cells) was “active in inducing TLR4”, the “induction of TLR4” value (TLR4; macrophage cell lines) was “active in inducing TLR4” and the LXR ligand activity (LXR) was “optimal ligands of LXR”. For the same compound, the “production of viral progenies” value (human rhinovirus 1A [3]) was “totally inhibit the production of viral progenies”, the EC50 (human rotavirus Wa [4]) was 0.26 µM and the EC90 (human rotavirus Wa [4]) was 1.73 µM. The EC50 (human rotavirus DS-1) was 0.72 µM, the EC90 (human rotavirus DS-1) was 5.85 µM and the EC50 (human rotavirus WI61) was 0.19 µM. It also gave an EC90 (human rotavirus WI61) of 0.74 µM, an EC50 (human rotavirus HRV 248) of 0.23 µM and an EC90 (human rotavirus HRV 248) of 3.84 µM. It also gave an EC50 (human rotavirus HRV 408) of 0.4 µM, an EC90 (human rotavirus HRV 408) of 4.56 µM and an EC50 (human rhinovirus 1A [5]; post-infection treatment assay) of 0.48 µM. It also gave an EC90 (human rhinovirus 1A [5]; post-infection treatment assay) of 1.27 µM, an EC50 (human rhinovirus 1A [5]; [11]) of 0.62 µM and an EC90 (human rhinovirus 1A [5]; [11]) of 2.17 µM. For the same compound, the “antiviral activity in cells with OSBP silenced” value (human rotavirus [6]; OSBP siRNA 20 nM) was “higher” and the “antiviral activity in cells with VAP-A silenced” value (human rotavirus [6]; VAPA siRNA 20 nM) was “higher”.

For `CC(C)CCC[C@@H](C)[C@H]1CC[C@H]2[C@@H]3C(=O)C=C4C[C@@H](O)CC[C@]4(C)[C@H]3CC[C@]12C` [7κC, 7-ketocholesterol], the “production of virus progenies” value [2, 8] was “significantly limit (p<0.05) the production of virus progenies”, the “production of virus progenies” value [2, 9] was “antiviral activity” and the “production of virus progenies” value [2, 10] was “significantly limit (p<0.05) the production of virus progenies”. The “entry of the rotavirus into the cells (infective events)” value (rotavirus) was “does not cause a significant reduction (p>0.05) in the number of infective events” and the LXR ligand activity (LXR) was “no ligand activity”.

`CC(C)C(O)CC[C@@H](C)[C@H]1CC[C@H]2[C@@H]3CC=C4C[C@@H](O)CC[C@]4(C)[C@H]3CC[C@]12C` (stereo partly shown) [24OHC, 24-hydroxycholesterol] showed an EC50 (PsV of HPV-16; Human papillomavirus, HeLa) of 4.38 µM, an EC50 (human rotavirus Wa [4]) of 0.39 µM and an EC90 (human rotavirus Wa [4]) of 1.6 µM. The EC50 (human rhinovirus 1A [5]; [11]) was 0.77 µM and the EC90 (human rhinovirus 1A [5]; [11]) was 3.1 µM.

For `CCN(CC)CCO[C@H]1CC[C@@]2(C)C(=CC[C@@H]3[C@@H]2CC[C@]2(C)C(=O)CC[C@@H]32)C1` [U18666A], the EC50 (human papillomavirus) was 1.74 µM and the “inhibition of rotavirus infectivity” value (human rotavirus [7]) was “antiviral activity is so high that calculation of the EC50 is not possible”.

With `CC(C)CCC[C@@H](C)[C@H]1CC[C@H]2[C@@H]3[C@H](O)C=C4C[C@@H](O)CC[C@]4(C)[C@H]3CC[C@]12C` [7αOHC, 7alpha-hydroxycholesterol] the “production of virus progenies” value [2, 9] was “antiviral activity” and the “inhibition of the infectivity of HPV” value (PsV of HPV-16) was “not able to inhibit the infectivity of HPV”.

For `CC(C)CCC[C@@H](C)[C@H]1CC[C@H]2[C@@H]3[C@@H](O)C=C4C[C@@H](O)CC[C@]4(C)[C@H]3CC[C@]12C` [7βOHC, 7β-hydroxycholesterol], the “production of virus progenies” value [2, 9] is listed as “antiviral activity”, the “production of virus progenies” value [2, 10] is listed as “significant (P<0.05) antiviral activity” and the “induction of TLR4” value (TLR4; SH-SY5Y neuroblastoma cells) is listed as “active in inducing TLR4”.
